Results as given in article PMC12216759 (Nature Communications, 2025).

Assays:
Format in all cases: biochemical
[1] = biological target: T1, SHV-5 M69I (Enterobacter cloacae, UniProt Q6QNE1, M65I); assay: hydrolysis kinetics of purified enzyme
[2] = biological target: T2, SHV-5 (Enterobacter cloacae, UniProt Q6QNE1); assay: steady-state hydrolysis kinetics of purified enzyme
[3] = biological target: T2, SHV-5; assay: as above; remark: listed apart in the source
[4] = biological target: T1, SHV-5 M69I; assay: as above
[5] = biological target: T2, SHV-5; assay: as above; remark: listed apart in the source
[6] = biological target: T1, SHV-5 M69I; assay: as above; remark: listed apart in the source

## CC(C)(O/N=C(\C(=O)N[C@@H]1C(=O)N2C(C(=O)[O-])=C(C[N+]3(CCNC(=O)c4ccc(O)c(O)c4Cl)CCCC3)CS[C@H]12)c1csc(N)n1)C(=O)O [cefiderocol]
[1]
  hydrolysis kinetics of purified enzyme (UV, 259 nm); KM too high to determine: 1.2 × 10^3 M^−1s^−1 (kcat/KM)
[2]
  steady-state hydrolysis kinetics of purified enzyme (UV, 259 nm): 9 × 10^3 M^−1s^−1 (kcat/KM)

## CO/N=C(\C(=O)N[C@@H]1C(=O)N2C(C(=O)O)=C(COC(C)=O)CS[C@H]12)c1csc(N)n1 [cefotaxime]
[3]
  steady-state hydrolysis kinetics of purified enzyme (UV, 264 nm): 8 × 10^5 M^−1s^−1 (kcat/KM)
[4]
  steady-state hydrolysis kinetics of purified enzyme (UV, 264 nm): 2.3 × 10^4 M^−1s^−1 (kcat/KM)

## CC(=O)OCC1=C(C(=O)O)N2C(=O)[C@@H](NC(=O)Cc3cccs3)[C@H]2SC1 [cephalothin]
[5]
  steady-state hydrolysis kinetics of purified enzyme (UV, 262 nm): 1 ×10^6 M^−1s^−1 (kcat/KM)
[6]
  steady-state hydrolysis kinetics of purified enzyme (UV, 262 nm): 8 × 10^4 M^−1s^−1 (kcat/KM)
